Source: PMC4440699 (MedChemComm, 2014)

Key:
Solubility observations = type: physicochemical; details: greater concentration required more than 1% DMSO
HDAC8 = molecular target: T1, HDAC8 (Homo sapiens, UniProt Q9BY41); test: HDAC8 inhibition, human recombinant HDAC isoform survey; type: biochemical
T1 sequence (Q9BY41 1-377): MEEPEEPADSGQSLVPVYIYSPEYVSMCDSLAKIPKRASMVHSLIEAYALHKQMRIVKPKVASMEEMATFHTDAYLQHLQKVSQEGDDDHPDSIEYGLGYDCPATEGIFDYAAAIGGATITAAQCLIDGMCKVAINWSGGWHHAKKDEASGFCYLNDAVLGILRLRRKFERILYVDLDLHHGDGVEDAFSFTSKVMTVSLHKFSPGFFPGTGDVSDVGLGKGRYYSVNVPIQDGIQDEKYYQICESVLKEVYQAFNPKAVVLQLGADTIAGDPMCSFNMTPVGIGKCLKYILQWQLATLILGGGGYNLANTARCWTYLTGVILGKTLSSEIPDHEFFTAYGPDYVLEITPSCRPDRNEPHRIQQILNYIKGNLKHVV

acetylated H3K9 = details: MV-4-11 cells
p21^WAF1/CIP1 = test: p21WAF1/CIP1 levels in MV-4-11 leukemia cells by Western blotting; type: cell-based; details: MV-4-11 cells
MV-4-11 leukemia cells = test: Growth inhibition of cultured MV-4-11 leukemia cells; type: cell-based; details: for growth inhibitor activity in the MV-4-11 cell line: 24 hours exposure, 1 to 100 μM
[1] = Zinc binding affinity by isothermal calorimetry; details: ITC, 25 °C
HDAC1 = HDAC1 (Homo sapiens, UniProt Q13547); test: HDAC1 inhibition, human recombinant HDAC isoform survey; type: biochemical
HDAC1, sequence (Q13547 whole entry, canonical isoform): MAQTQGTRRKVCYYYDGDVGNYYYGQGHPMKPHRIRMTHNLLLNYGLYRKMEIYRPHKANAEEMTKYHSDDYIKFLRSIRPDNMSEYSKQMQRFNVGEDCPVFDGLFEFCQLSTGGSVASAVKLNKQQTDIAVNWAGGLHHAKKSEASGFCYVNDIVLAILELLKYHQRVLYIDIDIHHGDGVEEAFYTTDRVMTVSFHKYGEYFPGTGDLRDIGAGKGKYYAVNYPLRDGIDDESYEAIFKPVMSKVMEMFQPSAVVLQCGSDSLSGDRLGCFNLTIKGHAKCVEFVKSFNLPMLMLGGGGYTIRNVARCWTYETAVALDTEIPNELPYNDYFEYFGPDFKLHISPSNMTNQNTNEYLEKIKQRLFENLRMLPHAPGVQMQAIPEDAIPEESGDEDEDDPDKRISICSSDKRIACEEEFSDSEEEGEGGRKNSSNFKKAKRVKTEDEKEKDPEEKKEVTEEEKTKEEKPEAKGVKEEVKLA

HDAC10 = molecular target: T2, HDAC10 (Homo sapiens, UniProt Q969S8); test: HDAC10 inhibition, human recombinant HDAC isoform survey; type: biochemical; details: from % inhibition at 20 μM
T2 sequence (Q969S8 1-669): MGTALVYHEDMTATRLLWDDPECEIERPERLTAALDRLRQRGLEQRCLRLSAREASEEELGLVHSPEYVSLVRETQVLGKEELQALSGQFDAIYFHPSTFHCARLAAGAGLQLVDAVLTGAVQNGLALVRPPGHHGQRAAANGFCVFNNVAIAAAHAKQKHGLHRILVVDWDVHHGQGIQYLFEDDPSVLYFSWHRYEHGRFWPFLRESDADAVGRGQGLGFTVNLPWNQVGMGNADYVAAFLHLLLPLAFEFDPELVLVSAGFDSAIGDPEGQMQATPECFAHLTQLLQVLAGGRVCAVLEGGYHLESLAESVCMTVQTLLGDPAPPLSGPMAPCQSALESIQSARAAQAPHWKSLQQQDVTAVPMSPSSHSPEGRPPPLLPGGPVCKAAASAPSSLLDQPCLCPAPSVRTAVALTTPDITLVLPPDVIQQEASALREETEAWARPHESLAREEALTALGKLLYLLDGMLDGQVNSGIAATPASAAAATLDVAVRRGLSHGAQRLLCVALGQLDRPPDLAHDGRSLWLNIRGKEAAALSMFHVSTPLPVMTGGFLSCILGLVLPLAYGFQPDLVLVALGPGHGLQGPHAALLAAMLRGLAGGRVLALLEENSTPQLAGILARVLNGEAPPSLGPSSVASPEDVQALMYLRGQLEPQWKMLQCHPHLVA

O=C(NC(c1ccccc1)c1ccccc1)c1coc(-c2ccccc2O)n1 [Compound 10]
solution concentration attainable without more than 1% DMSO (Solubility observations): ≤ 20 µM
inhibitory activity against HDAC8 (HDAC8): very poor inhibitory activity
amount of acetylated H3K9 induced relative to 0.5 μM of SAHA (acetylated H3K9): comparable amount
concentration producing an increase in H3K9 acetylation equivalent to 0.5 μM SAHA (acetylated H3K9; Western blot): 2.5 µM
concentration with measurable increase in cellular levels of acetylated H3K9 (acetylated H3K9; Western blot): ≥ 2.5 µM
change in H3K9 acetylation (acetylated H3K9; concentrations between 1.0 and 10 μM): dose-dependent change in acetylation
amount of p21Waf1/CIP1 induced relative to 0.5 μM of SAHA (p21^WAF1/CIP1): comparable amount
p21^WAF1/CIP1 expression (p21^WAF1/CIP1; concentrations between 1.0 and 10.0 μM): dose-dependent increase
difference in cellular IC50 value against MV4-11 cells between SAHA and compound 10 (MV-4-11 leukemia cells; SAHA 0.7 μM vs 10 7.5 μM): 10.7 fold
ΔG, binding to Zn^++ [1]: -5.103 kcal/mol
KA, binding to Zn^++ ([1]; compound in methanol, zinc in 50mM HEPES pH 7.0): 4,937 M^-1
IC50 (HDAC1): < 20 µM

O=C(NCCC(c1ccccc1)c1ccccc1)c1coc(-c2ccccc2O)n1 [Compound 12]
growth inhibitor activity in the MV-4-11 cell line (MV-4-11 leukemia cells): inactive

O=C(Nc1ccc(-c2ccccc2)cc1)c1coc(-c2ccccc2O)n1 [Compound 13]
growth inhibitor activity in the MV-4-11 cell line (MV-4-11 leukemia cells): inactive

O=C(NCc1ccc(-c2ccccc2)cc1)c1coc(-c2ccccc2O)n1 [Compound 14]
growth inhibitor activity in the MV-4-11 cell line (MV-4-11 leukemia cells): inactive

O=C(NCCCCNC(=S)NCCC(c1ccccc1)c1ccccc1)c1coc(-c2ccccc2O)n1 [Compound 19]
isoform selectivity (HDAC10): moderately selective for HDAC10

O=C(Nc1ccccc1)c1ccc(CNC(=O)c2coc(-c3ccccc3O)n2)cc1 [Compound 23]
isoform selectivity (HDAC10): moderately selective for HDAC10

O=C(CNC(=O)c1coc(-c2ccccc2O)n1)Nc1ccccc1 [Compound 24]
isoform selectivity (HDAC10): moderately selective for HDAC10
